Results taken from patent US20060166319A1 (priority 2004, published 2006).

Experiments:
[1] = system: E. coli BL21 (DE3) expressing pylT, pylS and mtmB1; test: Pyrrolysine-dependent amber suppression (mtmB1 UAG readthrough, anti-MtmB immunoblot); type: cell-based; details: strain expressing pylT, 1 mM amino acid, 4 h induction
From the text: As a reporter of UAG translation as a sense codon, we introduced the mtmB1 gene into E. coli BL21 (DE3). […] Plasmids were constructed bearing combinations of mtmB1, pylS and/or pylT under the control of the T7 promoter, and transformed into E. coli. […] Total cellular proteins from each strain were then separated by SDS-polyacrylamide-gel electrophoresis and mtmB1 gene products were detected by subsequent immunoblotting with polyclonal antibody specific for purified M. barkeri MtmB.
To test for amber suppression, overnight cultures were grown in Luria-Bertani broth (3 ml) with 100 μg ml^−1 ampicillin. Subsequently, 200 μl was inoculated into 1 ml fresh medium and grown to a D600 of 0.6. […] The mtmB1 gene products in equivalent amounts of lysates were then analysed by immunoblotting of a SDS 12.5% polyacrylamide gel with affinity-purified rabbit anti-MtmB antibody^6. The Rainbow Molecular Weight markers (Amersham Biosciences) were used.
To test for amber suppression, overnight cultures of a strain bearing one of the plasmids were grown in LB broth (3 mL) with 100 ug/ml final ampicillin. Subsequently, 200 μl of each culture was inoculated into 1 ml of fresh LB medium with ampicillin, and grown to an A600 of approximately 0.6. […]

[2] = system: E. coli BW25141(DE3) transformed with pDLGUS; test: beta-glucuronidase activity from uidA gene with UAG codon replacing AAA286; type: cell-based
From the text: In order to avoid interference by the residue uidA gene, we employed a strain with most of uidA deleted, E. coli BW25141(DE3). This strain was transformed with pDLGUS, a variant of the pEC03 plasmid in which the mtmB1 gene was removed and the uidA gene introduced in its place.

His6-PylS = molecular target: T1, His6-PylS (Methanosarcina barkeri, UniProt Q6WRH6); test: Gel-shift aminoacylation assay with N-terminally His-tagged PylS; type: biochemical
T1 construct: made in house; host or cells: E. coli (inferred from the control with untransformed E. coli)
T1 sequence (Q6WRH6 whole entry): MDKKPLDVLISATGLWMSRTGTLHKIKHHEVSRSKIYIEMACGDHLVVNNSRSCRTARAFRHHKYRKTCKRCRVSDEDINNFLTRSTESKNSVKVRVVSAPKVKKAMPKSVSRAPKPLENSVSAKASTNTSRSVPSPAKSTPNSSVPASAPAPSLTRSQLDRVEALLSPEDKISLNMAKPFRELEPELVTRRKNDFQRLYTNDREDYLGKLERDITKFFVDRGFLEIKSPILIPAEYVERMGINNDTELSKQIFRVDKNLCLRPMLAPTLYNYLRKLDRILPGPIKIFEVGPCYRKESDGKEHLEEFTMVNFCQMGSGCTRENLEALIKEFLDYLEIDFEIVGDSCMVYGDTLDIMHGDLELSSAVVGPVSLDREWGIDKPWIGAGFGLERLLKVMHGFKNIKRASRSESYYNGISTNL
Experimental: Aminoacylation assay in acid-urea gels. […] Following incubation at 37° C. for 5 to 30 minutes, the reaction was terminated by addition of an equal volume of 2× loading dye (0.3 M sodium acetate, 8 M urea, pH 5.0) and charged and uncharged tRNA species analysed by acid-urea acrylamide gel electrophoresis following the methods outlined in Jester et al. Samples were electrophoresed in 14% polyacrylamide gels buffered with a 0.3 M sodium acetate-7 M urea solution, pH 5.0, at 50 volts and 4° C. for 24 hours. The same buffer without urea was used in the electrode chambers, and was replaced with fresh buffer every 6-8 hours. Finished gels were transblotted for 2 hours at 40 volts in 4° C. in a blotting solution of 10 mM Tris-acetate, 5 mM sodium acetate, and 0.5 mM EDTA, pH 8.0. The blot was then cross-linked by ultraviolet radiation (15000 μJ/cm2 per side) then prehybrized in 0.25 M sodium phosphate buffer, pH 7.2, and 5.7% SDS for at least 30 minutes. In order to detect charged and uncharged tRNACUA a 72 base oligonucleotide complementary to full length of tRNACUA was labeled with γ-^32P ATP and polynucleotide kinase. […] Radioactivity on the blot was imaged and analyzed using a STORM Phosphorimager (Amersham Biosciences).

PylS-His6 [3] = molecular target: T2, PylS-His6 (Methanosarcina barkeri, UniProt Q6WRH6); test: Aminoacylation of tRNACUA in acid-urea gels (gel-shift, northern blot); type: biochemical; details: for aminoacylation of tRNA^lys in the M. acetivorans tRNA pool: tRNA^lys instead of tRNACUA
T2 construct: made in house; host or cells: E. coli BL21 (DE3)
T2 sequence (Q6WRH6 whole entry): as above
From the text: Recombinant PylS-His6 was purified by Ni affinity chromatography from lysates of Escherichia coli expressing the recombinant Methanosarcina barkeri pylS gene modified so as to add a carboxy-terminal hexahistidine tag to the gene product. The tRNA pool extracted from Methanosarcina acetivorans or tRNACUA transcribed in vitro was used in charging experiments. Charged and uncharged tRNA species were separated by electrophoresis in a denaturing acid-urea polyacrylamide gel and tRNACUA was specifically detected by northern blotting with an oligonucleotide probe.
The reaction was terminated after 5-30 min at 37° C. with an equal volume of 0.3 M sodium acetate, 8 M urea pH 5.0. Charged and uncharged tRNA were separated by acid-urea acrylamide gel electrophoresis, blotted to nitrocellulose and probed with a 5μ ^32P-end-labelled, 72-base oligonucleotide complementary to tRNA^CUA. Radioactivity was analysed with a STORM Phosphorimager (Amersham Biosciences).
Aminoacylation assay in acid-urea gels. […] Following incubation at 37° C. for 5 to 30 minutes, the reaction was terminated by addition of an equal volume of 2× loading dye (0.3 M sodium acetate, 8 M urea, pH 5.0) and charged and uncharged tRNA species analysed by acid-urea acrylamide gel electrophoresis following the methods outlined in Jester et al. Samples were electrophoresed in 14% polyacrylamide gels buffered with a 0.3 M sodium acetate-7 M urea solution, pH 5.0, at 50 volts and 4° C. for 24 hours. The same buffer without urea was used in the electrode chambers, and was replaced with fresh buffer every 6-8 hours. Finished gels were transblotted for 2 hours at 40 volts in 4° C. in a blotting solution of 10 mM Tris-acetate, 5 mM sodium acetate, and 0.5 mM EDTA, pH 8.0. The blot was then cross-linked by ultraviolet radiation (15000 μJ/cm2 per side) then prehybrized in 0.25 M sodium phosphate buffer, pH 7.2, and 5.7% SDS for at least 30 minutes. In order to detect charged and uncharged tRNACUA a 72 base oligonucleotide complementary to full length of tRNACUA was labeled with γ-^32P ATP and polynucleotide kinase. The probe was hybridized with the blot overnight at room temperature, then agitated at 22° C. for 5 minute in 10 mM sodium citrate, 150 mM NaCl, 1% SDS, pH 7.0, then agitated with two changes of 5 mM sodium citrate, 75 mM sodium chloride, 1% SDS, pH 7.0, for 5 minutes each. Radioactivity on the blot was imaged and analyzed using a STORM Phosphorimager (Amersham Biosciences).

PylS-His6 [4] = molecular target: T2, PylS-His6; test: Pyrrolysine dependent pyrophosphate:ATP exchange; type: biochemical; set-up: apparent Vmax: unit not given here
Experimental: As a prerequisite of tRNA aminoacylation, an aminoacyl-adenylate and pyrophosphate are formed from the amino acid and ATP by an aminoacyl-tRNA synthetase. This reversible activation reaction can be assayed by the isotopic exchange of ^32P-pyrophosphate into ATP dependent on the addition of the cognate amino acid for the aminoacyl-tRNA synthetase in question.
The pyrophosphate exchange reaction was essentially performed following the method of Cole and Schimmel. All reactions were performed in duplicate at 37° C. The 100 to 200 μl reactions contained (unless noted) 0.3 to 1 μM PylSHis6. […] The specific activity of the radiolabel was adjusted from 4 to 10 dpm/pmol). The concentration of protein was 0.3 to 1 μM. At specific times, 25 μl aliquots were removed and quenched in 500 μl of a stop solution containing 1.6% (w/v) activated acid-washed charcoal (Sigma Chemical Co., St. Louis, Mo.), 80 mM sodium tetrapyrophosphate, and 3.5% (v/v) perchloric acid. Samples were filtered through Whatman GF/C glass-fiber filters and then the filter was washed three times with 5 ml of 40 mM sodium tetrasodium pyrophosphate solution containing 1.7% perchloric acid (v/v) and once with 5 ml 100% ethanol. Filters were dried at 80° C. for 5 minutes then placed in 20 ml scintillation vials containing 10 ml of Ultima Gold F scintillation cocktail (PerkinElmer), shaken once, and counted in a liquid scintillation analyzer. Identical reactions without amino acid, ATP, or enzyme were also set up as negative controls in duplicate. […] One substrate was kept constant at a concentration higher than its respective apparent Km value.

[5] = Stability studies of compound 8 to NaOH, LiOH and TFA (TLC); type: physicochemical; details: rt
Experimental: Stability Studies of Compound (8) to NaOH. NaOH (6 M, 20 μL, 0.12 mmol) was added to a solution of compound 8 (0.15 M, 100 μL, 0.015 mmol). The resulting mixture was allowed to react at rt over 3 days, during which the degradation of compound 8 was monitored by a ninhydrin TLC assay (CHCl3-MeOH—NH4OH(aq)=2:2:1).
Stability Studies of Compound (8) to LiOH. Compound 8 (21.9 mg, 84 μmol) was dissolved in water (2 mL) and LiOH.H2O (84.5 mg, 2.0 mmol) was added. This mixture was allowed to react at rt. While initially only starting material was observed by TLC (MeOH-EtOAc=4:1, Rf=0.26), after 24 h two new bands (Rf=0.10, 0.02) appeared. After 5 days, the solution was evaporated to dryness at rt, redissolved in MeOH (0.5 mL), and purified on chromatography silica gel. […] The other new band appears to be a mixture of species based on its NMR and MS data.
Stability Studies of Compound (8) to TFA. Compound 8 (21.7 mg, 0.083 mmol) was dissolved in MeOH (2 mL) and TFA (200 μL) was added. After 1 h, one new band (MeOH-EtOAc=2:1; Rf=0.22) was observed by TLC. The mixture was allowed to react to completion for 2 days at rt. The resulting mixture was evaporated to dryness, dissolved in MeOH (0.5 mL), and subjected to chromatography on silica gel. […] The peak for the C2 imine proton is absent, and the peak for the C5 proton is either absent or shifted.

NMR H/D exchange studies = type: physicochemical; details: rt
Experimental: Compound 7 (˜4 mg, ˜10 μmol) was dissolved in CD3OD (0.75 mL), and D2O (2 drops) was added. The reaction mixture was kept at rt and monitored by NMR (400 MHz). […] NaOD (30% w/w in D2O, 2 drops) was then added, and the solution monitored by NMR. […] After 25 h, the C5 proton peak completely disappeared.
To rule out the possibility that the loss of the C5 proton peak was due to decomposition, the resulting mixture was evaporated at rt under reduce pressure, and the residue was redissolved in CH3OH and allowed to stir for 1 day. The mixture was then evaporated to dryness in vacuo, and redissolved in CD3OD. The NMR spectrum was quickly taken, and the C5 proton peak was again observed. As before, the C5 proton peak slowly disappeared over a 1-day period.
To evaluate the importance of the imine bond on the acidity of the C5 proton, proline was dissolved in 0.75 mL CD3OD and 0.20 mL D2O and treated with […].

For `C[C@@H]1CC=N[C@H]1C(=O)NCCCC[C@H](N)C(=O)O` [pyrrolysine, lysine in amide linkage with (4R,5R)-4-methyl-pyrroline-5-carboxylate], the “UAG readthrough: expression of 50-kDa MtmB” value [1] was “large amounts of 50-kDa MtmB”, the “increase of beta-glucuronidase activity” value ([2]; 1 mM synthetic pyrrolysine versus absence of pyrrolysine) was “approximately 100 fold” and the beta-glucuronidase activity ([2]; induced with IPTG in the presence of 1 mM synthetic pyrrolysine) was 4. umol/min·mg protein. For the same compound, the “lysyl- or pyrrolysyl-tRNA synthetase activity” value (His6-PylS) was “does have pyrrolysyl-tRNA synthetase activity”, the “maximal conversion of deacylated tRNACUA to charged species” value (PylS-His6 [3]; deacylated M. acetivorans cellular tRNA pool, incubation with pyrrolysine, ATP and PylS-His6) was 50% and the “maximum of tRNACUA transcribed in vitro aminoacylated” value (PylS-His6 [3]; in vitro transcribed tRNACUA, synthetic pyrrolysine, ATP-dependent) was 43%. The “aminoacylation of tRNA^lys in the M. acetivorans tRNA pool” value (PylS-His6 [3]) was “does not aminoacylate”, the Km (PylS-His6 [4]; 37° C., pH 7.2, other substrate held constant, read-out: apparent Km) was 53 µM and the “apparent Vmax” value (PylS-His6 [4]; exchange reaction, 37° C.) was 120.

In the case of `C[C@@H]1CC=N[C@H]1C(=O)NCCCC[C@H](N)C(=O)[O-].[Li+]` [Compound 8, L-Pyrrolysine lithium salt], the “degradation in LiOH observed by TLC” value ([5]; LiOH in water, after 24 h) was “two new bands”, the “degradation in NaOH monitored by ninhydrin TLC” value ([5]; NaOH 6 M 20 μL added to 0.15 M solution, over 3 days) was “One new band” and the “degradation in TFA observed by TLC” value ([5]; TFA in MeOH, after 1 h) was “one new band”.

For `COC(=O)[C@H](CCCCNC(=O)[C@@H]1N=CC[C@H]1C)NC(=O)C(F)(F)F` [Compound 7, Nα-Trifluoroacetyl-L-pyrrolysine methyl ester], the “change in NMR spectrum” value (NMR H/D exchange studies; CD3OD with D2O, 3-day period, no base) was “No change was observed” and the “time until C5 proton peak completely disappeared (H/D exchange)” value (NMR H/D exchange studies; CD3OD/D2O with NaOD) was 25 h.

In the case of `NCCCC[C@H](N)C(=O)O` [lysine, reference compound], the “UAG readthrough: expression of 50-kDa MtmB” value [1] was “could not be replaced”, the “lysyl- or pyrrolysyl-tRNA synthetase activity” value (His6-PylS) was “no lysyl-tRNA synthetase activity was detectable” and the “formation of charged tRNACUA species” value (PylS-His6 [3]; 20 canonical amino acids each at 50 μM, or only 50 μM lysine, no pyrrolysine) was “not formed”. For the same compound, the “aminoacylation of tRNA^lys in the M. acetivorans tRNA pool” value (PylS-His6 [3]) was “does not aminoacylate” and the “isotopic exchange into ATP above background” value (PylS-His6 [4]; incubation as long as 30 min, canonical 20 amino acids each at 100 μM, or 1 mM lysine) was “no detectable isotopic exchange”.
